Consider one compound from patent US10322136B2, “Composition for inhibiting growth or proliferation of chronic myelogenous leukemia cancer stem cells, and screening method therefor” (HIROSHIMA UNIVERSITY, priority 2015, dated 2019).

The subject of assay [1] is AMPK. The assay can be described thus: Duolink in situ PLA, AMPK phosphorylation in LT-CML cancer stem cells. It counts as cell-based, mouse. The conditions noted are these: LT-CML cancer stem cells in vitro. Here is the method:
To examine phosphorylation of Smad2, Smad3, p38MAPK, AMPK, and S6 ribosomal protein, and Foxo3a-Smad2 and Foxo3a-Smad3 interactions, Duolink® in situ PLA assay (Olink Bioscience) was used. LT-CML stem cells, ST-CML stem cells, CD48^+, MPP, and KLS^− CML cells that were freshly isolated from CML-affected mice, and LT-normal HSCs that were freshly isolated from healthy control littermates, were immediately fixed with 4% paraformaldehyde for 30 min.
For in vitro inhibitor experiments, LT-CML stem cells were incubated in 3% O2 at 37° C. for 30 min with vehicle (control; artificial gastric fluid solution (900 ml ddH2O containing 2.0 g of NaCl, 7 ml of conc. HCl and 3.2 g of pepsin)), 5 μM Ly364947 (TGF-β type I receptor kinase Alk5 inhibitor; Merck), 5 μM SB203580 (p38MAPK inhibitor; LC Laboratories), 5 μM GlySar (dipeptide transporter inhibitor; Sigma-Aldrich), 5 μM cefadroxil (dipeptide transporter inhibitor; Sigma-Aldrich), or 100 nM rapamycin (mTORC1 inhibitor; Cell Signaling Technologies). Treated cells were fixed with 4% paraformaldehyde for 30 min, and treated with 0.25% Triton X-100 for 15 min, washed and blocked by incubation in 5% FBS in TBS for 1 hr.
The proximate binding of these antibodies was then detected using Duolink® in situ PLA system which employs a set of two secondary antibodies in which one is conjugated to a minus strand PLA probe and the other is conjugated to a plus strand PLA probe. Nuclei were stained with DNA marker DAPI (Sigma). Stained slides were mounted using Fluoromount Plus (Diagnostic Biosystems) and fluorescent images were acquired by confocal microscopy (FV10i, Olympus) and Photoshop software (Adobe). The number of fluorescent foci per single cell was quantified using Duolink®Image Tool software (Olink Bioscience).

The subject of assay [2] is Foxo3a-/- LT-CML cancer stem cells. Put plainly: Colony-forming capacity of Foxo3a-/- LT-CML cancer stem cells. It counts as cell-based, mouse. Particulars: cefadroxil treatment in vitro. Here is the method: To establish our Foxo3a-deficient tet-inducible CML mouse model, Foxo3a-deficient mice 42 (C57BL/6; F5) were crossed with Tal-tTA and TRE-BCR-ABL1 transgenic mice that were backcrossed for five generations in the C57BL/6 background, respectively. LT-CML stem cells or LT-normal HSCs (1×10^3/plate) were co-cultured on OP-9 stromal cells for 5 days in the presence of either vehicle (control) or a dipeptide transporter inhibitor cefadroxil (5 μM). Cells were harvested, washed with PBS, and plated in semi-solid methylcellulose medium containing SCF, IL-3, IL-6 and erythropoietin (Methocult GF M3434; Stem Cell Technologies). After growth for 7 days in a humidified atmosphere containing 5% CO2 at 37° C., colony numbers were counted under a light microscope.

Assay [3] concerns CML-KLS+ cells. The assay can be described thus: Serial transplantation of CML stem cells. The format is in vivo, mouse. Here is the method: To evaluate the retention of the disease-initiating capacity by CML stem cells after treatment of mice with cefadroxil […] and/or IM in vivo, the number of GFP/BCR-ABL1+CMLKLS^+ cells in treated BCR-ABL1 CML-affected mice was determined, and subsequent secondary transplantation of the cells was performed. Briefly, CML-affected mice received by oral gavage for 30 days post BM transplantation as described above. The number of GFP/BCR-ABL1+CML-KLS+ cells among total GFP/BCR-ABL1+CML cells isolated from BM MNCs acquired from the two hindlimbs of treated CML-affected mice was assessed by flow cytometry. Freshly purified GFP/BCR-ABL1^+CML-KLS^+ cells (3×10^4) were then serially transplanted into a second set of lethally irradiated congenic recipient mice along with 5×10^5 normal BM MNCs derived from C57BL/6 mice. Mouse survival and disease recurrence were monitored for 90 days.

On to `CC1=C(C(=O)O)N2C(=O)[C@@H](NC(=O)[C@H](N)c3ccc(O)cc3)[C@H]2SC1` [cefadroxil], for which, in assay [1], the “phosphorylation of AMPK” value is recorded as “increased”. Further, the “number of colonies formed by Foxo3a-/- LT-CML cancer stem cells” value in assay [2] is given as “not altered”. Besides, in assay [3] (3x10^4 cells per recipient, donors treated with cefadroxil), the “ability of CML-KLS+ cells from treated mice to drive BCR-ABL1+ disease in new recipients” value is “completely lost their ability”. In assay [3] (recipients of CML-KLS+ cells from cefadroxil-treated mice), the “survival of new recipient mice” value is “over 90 days”.
